pEC50: −log10 of the molar value. Activity calls are given as the source filed them. How the calls were made is not given here.

A word on the EC50: it is the concentration giving half of the maximal effect. In general, pEC50 refers to −log10 of the EC50, conventionally taken in molar units.

The target in this experiment is Botulinum neurotoxin type F light chain protease (Clostridium botulinum). As to the kind of experiment: BoNT/F light chain protease inhibitors, dose response, biochemical, multiplex microsphere, Powder Set 03 (AID 720671). The conditions noted are these: multiplex microsphere protease cleavage assay, BoNT/F LC.
Consider `COc1ccc(-c2nc3nc(-c4ccccc4)cn3nc2-c2ccc(OC)cc2)cc1`, for which the EC50 is > 20 µM (inactive).

As to `COc1ccc(-c2cn3nc(-c4ccc(F)cc4)c(-c4ccc(F)cc4)nc3n2)cc1`, the EC50 was > 20 µM (inactive).

Take `CC(C)CS(=O)(=O)Nc1ccc2nc(-c3ccccc3)c(-c3ccccc3)nc2c1`: the EC50 is > 20 µM (inactive).

For `CCCOC(=O)Nc1ccc2nc(-c3ccccc3)c(-c3ccccc3)nc2c1`, the EC50 is > 20 µM (inactive).

Regarding `COc1ccc(-c2nc3nc(-c4ccc(F)cc4)cn3nc2-c2ccc(OC)cc2)cc1`, the EC50 was > 20 µM (inactive).

As to `O=C(Nc1ccc2nc(-c3ccccc3)c(-c3ccccc3)nc2c1)C1CCCC1`, the EC50 was > 20 µM (inactive).

`O=C(Nc1ccc2nc(-c3cccs3)c(-c3cccs3)nc2c1)NC1CCCC1`: the EC50 was > 20 µM (inactive).

For the compound `Cc1ccc(-c2nc3nc(-c4ccc(F)cc4)cn3nc2-c2ccc(C)cc2)cc1`, the EC50 was > 20 µM (inactive).

Consider `CC(C)(C)C(=O)Nc1ccc2nc(-c3ccccc3)c(-c3ccccc3)nc2c1`, for which the EC50 is > 20 µM (inactive).

For the compound `Fc1ccc(-c2cn3nc(-c4ccccc4)c(-c4ccccc4)nc3n2)cc1`, the EC50 is > 20 µM (inactive).

As to `COc1ccc(-c2nc3nc(-c4ccccc4OC)cn3nc2-c2ccc(OC)cc2)cc1`, the negative-log EC50 (pEC50) was 5.28.

Take `COc1ccc(-c2cn3nc(-c4ccc(C)cc4)c(-c4ccc(C)cc4)nc3n2)c(OC)c1`: the EC50 was > 20 µM (inactive).

As for `Fc1cccc(-c2cn3nc(-c4ccccc4)c(-c4ccccc4)nc3n2)c1`, the negative logarithm of the EC50 (pEC50) is 4.74.

Turning to `CCOC(=O)Nc1ccc2nc(-c3ccccc3)c(-c3ccccc3)nc2c1`, the EC50 was > 20 µM (inactive).

`COC(=O)Nc1ccc2nc(-c3ccccc3)c(-c3ccccc3)nc2c1`: the EC50 was > 20 µM (inactive).

As to `COc1ccc(-c2cn3nc(-c4ccc(C)cc4)c(-c4ccc(C)cc4)nc3n2)cc1`, the EC50 is > 20 µM (inactive).

On to `COc1cccc(-c2cn3nc(-c4ccc(F)cc4)c(-c4ccc(F)cc4)nc3n2)c1`, for which the pEC50 was 5.10.

As for `O=C(Nc1ccc2nc(-c3cccs3)c(-c3cccs3)nc2c1)C1CCC1`, the EC50 was > 20 µM (inactive).

Consider `O=S(=O)(Nc1ccc2nc(-c3ccccc3)c(-c3ccccc3)nc2c1)C1CC1`, for which the EC50 was > 20 µM (inactive).

With `CCS(=O)(=O)Nc1ccc2nc(-c3ccccc3)c(-c3ccccc3)nc2c1`, the EC50 is > 20 µM (inactive).

With `COC(=O)Nc1ccc2nc(-c3cccs3)c(-c3cccs3)nc2c1`, the EC50 is > 20 µM (inactive).

On to `Cc1ccc(-c2nc3nc(-c4ccc(S(C)(=O)=O)cc4)cn3nc2-c2ccc(C)cc2)cc1`, for which the EC50 was > 20 µM (inactive).

As for `CCNC(=O)Nc1ccc2nc(-c3ccccc3)c(-c3ccccc3)nc2c1`, the EC50 was > 20 µM (inactive).

For the compound `CCCCOC(=O)Nc1ccc2nc(-c3ccccc3)c(-c3ccccc3)nc2c1`, the EC50 was > 20 µM (inactive).

Consider `COc1ccc(-c2cn3nc(-c4ccc(OC)cc4)c(-c4ccc(OC)cc4)nc3n2)cc1`, for which the EC50 is > 20 µM (inactive).

Turning to `O=C(Nc1ccc2nc(-c3cccs3)c(-c3cccs3)nc2c1)OCc1ccccc1`, the EC50 was > 20 µM (inactive).

With `CCC(=O)Nc1ccc2nc(-c3cccs3)c(-c3cccs3)nc2c1`, the EC50 was > 20 µM (inactive).

Take `COc1ccc(-c2nc3nc(-c4ccc(S(C)(=O)=O)cc4)cn3nc2-c2ccc(OC)cc2)cc1`: the EC50 is > 20 µM (inactive).

Consider `CCOC(=O)Nc1ccc2nc(-c3cccs3)c(-c3cccs3)nc2c1`, for which the EC50 was > 20 µM (inactive).

For `O=C(Nc1ccc2nc(-c3ccccc3)c(-c3ccccc3)nc2c1)C1CC1`, the EC50 is > 20 µM (inactive).

Consider `CCNC(=O)Nc1ccc2nc(-c3cccs3)c(-c3cccs3)nc2c1`, for which the EC50 was > 20 µM (inactive).

On to `CC(C)OC(=O)Nc1ccc2nc(-c3cccs3)c(-c3cccs3)nc2c1`, for which the EC50 was > 20 µM (inactive).

For the compound `COc1ccc(-c2cn3nc(-c4ccc(F)cc4)c(-c4ccc(F)cc4)nc3n2)c(OC)c1`, the pEC50 was 5.82.

`Fc1ccc(-c2cn3nc(-c4ccc(F)cc4)c(-c4ccc(F)cc4)nc3n2)cc1`: the pEC50 was 5.40.

For `COc1ccc(-c2nc3nc(-c4ccc(OC)cc4OC)cn3nc2-c2ccc(OC)cc2)cc1`, the EC50 is > 20 µM (inactive).

In the case of `O=C(Nc1ccc2nc(-c3cccs3)c(-c3cccs3)nc2c1)C1CC1`, the EC50 was > 20 µM (inactive).

On to `CS(=O)(=O)c1ccc(-c2cn3nc(-c4ccccc4)c(-c4ccccc4)nc3n2)cc1`, for which the EC50 is > 20 µM (inactive).

In the case of `COc1ccc(-c2nc3nc(-c4ccc(OC(F)(F)F)cc4)cn3nc2-c2ccc(OC)cc2)cc1`, the EC50 was > 20 µM (inactive).

On to `CC(C)OC(=O)Nc1ccc2nc(-c3ccccc3)c(-c3ccccc3)nc2c1`, for which the EC50 was > 20 µM (inactive).

`Cc1ccc(-c2nc3nc(-c4ccc(OC(F)(F)F)cc4)cn3nc2-c2ccc(C)cc2)cc1`: the EC50 was > 20 µM (inactive).

With `CS(=O)(=O)c1ccc(-c2cn3nc(-c4ccc(F)cc4)c(-c4ccc(F)cc4)nc3n2)cc1`, the EC50 was > 20 µM (inactive).

For the compound `CCC(=O)Nc1ccc2nc(-c3ccccc3)c(-c3ccccc3)nc2c1`, the EC50 was > 20 µM (inactive).

For `N#Cc1ccc(-c2cn3nc(-c4ccc(F)cc4)c(-c4ccc(F)cc4)nc3n2)cc1`, the EC50 is > 20 µM (inactive).

On to `CCCS(=O)(=O)Nc1ccc2nc(-c3cccs3)c(-c3cccs3)nc2c1`, for which the EC50 was > 20 µM (inactive).

For the compound `COc1ccc(-c2nc3nc(-c4ccc(C)cc4)cn3nc2-c2ccc(OC)cc2)cc1`, the EC50 was > 20 µM (inactive).

In the case of `CCCOC(=O)Nc1ccc2nc(-c3cccs3)c(-c3cccs3)nc2c1`, the EC50 was > 20 µM (inactive).

Consider `COc1ccccc1-c1cn2nc(-c3ccccc3)c(-c3ccccc3)nc2n1`, for which the EC50 was > 20 µM (inactive).

With `CC(=O)Nc1ccc2nc(-c3ccccc3)c(-c3ccccc3)nc2c1`, the EC50 was > 20 µM (inactive).

With `Cc1ccc(-c2nc3nc(-c4cccc(F)c4)cn3nc2-c2ccc(C)cc2)cc1`, the EC50 was > 20 µM (inactive).

Take `CC(C)NC(=O)Nc1ccc2nc(-c3cccs3)c(-c3cccs3)nc2c1`: the EC50 is > 20 µM (inactive).

For the compound `CC(C)CS(=O)(=O)Nc1ccc2nc(-c3cccs3)c(-c3cccs3)nc2c1`, the EC50 was > 20 µM (inactive).

On to `CCCNC(=O)Nc1ccc2nc(-c3ccccc3)c(-c3ccccc3)nc2c1`, for which the EC50 was > 20 µM (inactive).

Regarding `COc1cccc(-c2cn3nc(-c4ccc(C)cc4)c(-c4ccc(C)cc4)nc3n2)c1`, the EC50 is > 20 µM (inactive).

As for `COc1ccc(-c2cn3nc(-c4ccccc4)c(-c4ccccc4)nc3n2)c(OC)c1`, the EC50 is > 20 µM (inactive).

Turning to `COc1ccccc1-c1cn2nc(-c3ccc(F)cc3)c(-c3ccc(F)cc3)nc2n1`, the pEC50 is 5.24.

Consider `Fc1ccc(-c2nc3nc(-c4ccc(OC(F)(F)F)cc4)cn3nc2-c2ccc(F)cc2)cc1`, for which the EC50 is > 20 µM (inactive).

Take `Fc1ccc(-c2nc3nc(-c4ccccc4)cn3nc2-c2ccc(F)cc2)cc1`: the pEC50 was 5.05.

Take `Clc1ccc(-c2cn3nc(-c4ccccc4)c(-c4ccccc4)nc3n2)c(Cl)c1`: the EC50 is > 20 µM (inactive).

Regarding `Cc1ccc(-c2nc3nc(-c4ccccc4)cn3nc2-c2ccc(C)cc2)cc1`, the pEC50 is 5.27.

Consider `CC(C)NC(=O)Nc1ccc2nc(-c3ccccc3)c(-c3ccccc3)nc2c1`, for which the EC50 was > 20 µM (inactive).

As to `CCNC(=S)Nc1ccc2nc(-c3ccccc3)c(-c3ccccc3)nc2c1`, the EC50 was > 20 µM (inactive).

For the compound `CC(Oc1ccccc1)C(=O)Nc1ccc2nc(-c3ccccc3)c(-c3ccccc3)nc2c1` (stereo unspecified), the EC50 is > 20 µM (inactive).

For `Cc1ccc(-c2cn3nc(-c4ccc(C)cc4)c(-c4ccc(C)cc4)nc3n2)cc1`, the EC50 is > 20 µM (inactive).

Regarding `Fc1ccc(-c2nc3nc(-c4cccc(F)c4)cn3nc2-c2ccc(F)cc2)cc1`, the pEC50 is 5.24.

Take `COc1ccc(-c2nc3nc(-c4cccc(OC)c4)cn3nc2-c2ccc(OC)cc2)cc1`: the EC50 is > 20 µM (inactive).

On to `COc1ccccc1-c1cn2nc(-c3ccc(C)cc3)c(-c3ccc(C)cc3)nc2n1`, for which the EC50 is > 20 µM (inactive).

As to `N#Cc1ccc(-c2cn3nc(-c4ccccc4)c(-c4ccccc4)nc3n2)cc1`, the EC50 was > 20 µM (inactive).

Consider `Cc1ccc(-c2nc3nc(-c4ccc(C#N)cc4)cn3nc2-c2ccc(C)cc2)cc1`, for which the pEC50 was 4.95.

Turning to `O=C(Nc1ccc2nc(-c3ccccc3)c(-c3ccccc3)nc2c1)C1CCCCC1`, the EC50 is > 20 µM (inactive).

For the compound `COc1ccc(-c2nc3nc(-c4ccc(C#N)cc4)cn3nc2-c2ccc(OC)cc2)cc1`, the EC50 was > 20 µM (inactive).

On to `O=C(Nc1ccc2nc(-c3ccccc3)c(-c3ccccc3)nc2c1)NC1CCCC1`, for which the EC50 is > 20 µM (inactive).

Consider `O=C(Nc1ccc2nc(-c3cccs3)c(-c3cccs3)nc2c1)C1CCCC1`, for which the EC50 was > 20 µM (inactive).

In the case of `COc1cccc(-c2cn3nc(-c4ccccc4)c(-c4ccccc4)nc3n2)c1`, the EC50 was > 20 µM (inactive).

On to `CC(C)(C)NC(=O)Nc1ccc2nc(-c3ccccc3)c(-c3ccccc3)nc2c1`, for which the EC50 was > 20 µM (inactive).

Regarding `O=S(=O)(Nc1ccc2nc(-c3cccs3)c(-c3cccs3)nc2c1)C1CC1`, the EC50 is > 20 µM (inactive).

For the compound `CCCCOC(=O)Nc1ccc2nc(-c3cccs3)c(-c3cccs3)nc2c1`, the EC50 is > 20 µM (inactive).

On to `Cc1ccc(-c2cn3nc(-c4ccc(F)cc4)c(-c4ccc(F)cc4)nc3n2)cc1`, for which the EC50 was > 20 µM (inactive).

As to `CCCS(=O)(=O)Nc1ccc2nc(-c3ccccc3)c(-c3ccccc3)nc2c1`, the EC50 was > 20 µM (inactive).

Take `FC(F)(F)Oc1ccc(-c2cn3nc(-c4ccccc4)c(-c4ccccc4)nc3n2)cc1`: the EC50 was > 20 µM (inactive).

As for `O=C(Nc1ccc2nc(-c3ccccc3)c(-c3ccccc3)nc2c1)OCc1ccccc1`, the EC50 is > 20 µM (inactive).

Regarding `O=C(Nc1ccc2nc(-c3ccccc3)c(-c3ccccc3)nc2c1)C1CCC1`, the EC50 is > 20 µM (inactive).

These data come from PubChem BioAssay AID720671 (NMMLSC, 2013).
